From patent US20250144067A1, “PERSONALIZED STARVATION THERAPY FOR CANCER” (Faeth Therapeutics, Inc., priority 2021, published 2025)
Structures can show the parent of a compound that is named as a salt.

Tests used:
[1] = test system: NCI-H292 lung cancer cells; assay: FDA drug screening, complete media vs cholesterol-free media with simvastatin (TABLE 2); format: cell-based, human; settings: for Cholesterol-free media + simvastatin (0.04 μM) / Complete Media: NCI-H292 cells
[2] = test system: NCI-H292 lung cancer cells; assay: FDA drug screening, complete media vs cholesterol-free media without statin (TABLE 1); format: cell-based, human
[3] = drug in cholesterol-free media with simvastatin 0.04 μM
[4] = complete media vs cholesterol-free media + simvastatin (0.04 μM), >0 enhanced anti-cancer activity, about 0 neutral, <0 antagonist
[5] = NCI-H292 cells, FDA drug library screen, cholesterol-free media without statin
[6] = NCI-H292 cells, FDA drug library screen, complete media
[7] = cholesterol-free media with simvastatin 0.04 μM, FDA drug library screen (TABLE 2)
[8] = complete media, FDA drug library screen (TABLE 2)
[9] = complete media minus cholesterol-free media + simvastatin (0.04 μM), >0 enhanced anti-cancer activity, about 0 neutral, <0 antagonist
[10] = Complete minus Cholesterol-free, >0 enhanced anti-cancer activity, about 0 neutral, <0 antagonist
[11] = NCI-H292 cells, cholesterol-free media without statin
[12] = FDA drug library screen, cholesterol-free media with simvastatin 0.04 μM
[13] = FDA drug library screen, complete media
[14] = NCI-H292 cells, cholesterol-free media without statin, FDA drug library screen
[15] = NCI-H292 cells, complete media, FDA drug library screen
[16] = FDA library drug in cholesterol-free media with simvastatin 0.04 μM
[17] = FDA library drug in complete media
[18] = Complete minus Cholesterol-free, […]
[19] = complete vs cholesterol-free media, >0 enhanced anti-cancer activity, about 0 neutral, <0 antagonist

Molecule: CCOc1nc2cccc(C(=O)OC(C)OC(=O)OC3CCCCC3)c2n1Cc1ccc(-c2ccccc2-c2nnn[nH]2)cc1 (centres unmarked) [Candesartan Cilexetil]
- Cholesterol-free media + simvastatin (0.04 μM) [1, 3]: 1.18
- Complete Media ([1]; drug in complete media): 0.9738
- Difference [1, 4]: −0.21
- Difference ([2]; Complete minus Cholesterol-free, greater than 0 enhanced anti-cancer activity, about 0 neutral, below 0 antagonist): −0.16
- Cholesterol-free [2, 5]: 1.093
- Complete [2, 6]: 0.9304

Molecule: C=CCN1C[C@H](C(=O)N(CCCN(C)C)C(=O)NCC)C[C@@H]2c3cccc4[nH]cc(c34)C[C@H]21 [Cabergoline]
- Cholesterol-free media + simvastatin (0.04 μM) [1, 3]: 1.138
- Complete Media ([1]; drug in complete media): 0.8998
- Difference [1, 4]: −0.24
- Difference ([2]; Complete minus Cholesterol-free, greater than 0 enhanced anti-cancer activity, about 0 neutral, below 0 antagonists): −0.59
- Cholesterol-free ([2]; NCI-H292 cells in cholesterol-free media without statin): 1.769
- Complete ([2]; NCI-H292 cells in complete media): 1.184

Molecule: COc1cc(NS(C)(=O)=O)ccc1Nc1c2ccccc2nc2ccccc12 [Amsacrine]
- Cholesterol-free media + simvastatin (0.04 μM) [1, 7]: 0.3844
- Complete Media [1, 8]: 0.346
- Difference [1, 9]: −0.04
- Difference [2, 10]: −0.20
- Cholesterol-free [2, 11]: 0.3482
- Complete ([2]; NCI-H292 cells, complete media): 0.1517

Molecule: Cc1onc(-c2c(Cl)cccc2Cl)c1C(=O)N[C@@H]1C(=O)N2[C@@H]1SC(C)(C)[C@@H]2C(=O)O [Dicloxacillin (Sodium hydrate)]
- Cholesterol-free media + simvastatin (0.04 μM) [1, 12]: 1.145
- Complete Media [1, 13]: 1.008
- Difference [1, 4]: −0.14
- Difference [2, 10]: 0.01
- Cholesterol-free [2, 14]: 0.8462
- Complete [2, 15]: 0.855

Molecule: O.O.O.O.O.O.O.O=C1N=C([O-])CN1/N=C/c1ccc(-c2ccc([N+](=O)[O-])cc2)o1.O=C1N=C([O-])CN1/N=C/c1ccc(-c2ccc([N+](=O)[O-])cc2)o1.[Na+].[Na+] [Dantrolene (sodium hemiheptahydrate)]
- Cholesterol-free media + simvastatin (0.04 μM) [1, 16]: 1.565
- Complete Media [1, 17]: 1.218
- Difference [1, 4]: −0.35
- Cholesterol-free [2, 11]: 1.274
- Complete ([2]; NCI-H292 cells, complete media): 0.9468
- Difference ([2]; complete vs cholesterol-free media, greater than 0 enhanced anti-cancer activity, about 0 neutral, below 0 antagonists): −0.33

Molecule: Fc1ccc([C@@H]2CCNC[C@H]2COc2ccc3c(c2)OCO3)cc1 [Paroxetine (hydrochloride)]
- Cholesterol-free media + simvastatin (0.04 μM) [1, 7]: 0.916
- Complete Media [1, 8]: 0.9086
- Difference [1, 9]: −0.01
- Difference [2, 10]: −0.22
- Cholesterol-free [2, 11]: 1.09
- Complete ([2]; NCI-H292 cells, complete media): 0.8739

Molecule: Dimemorfan (phosphate)
- Cholesterol-free media + simvastatin (0.04 μM) [1, 7]: 0.9385
- Complete Media [1, 8]: 0.8687
- Difference ([1]; complete media minus cholesterol-free media + simvastatin (0.04 μM), […]): −0.07
- Difference [2, 18]: −0.08
- Cholesterol-free [2, 5]: 0.9351
- Complete [2, 6]: 0.8552

Molecule: Cl.NCC(O)c1ccc(O)c(O)c1 (racemic) [DL-Norepinephrine (hydrochloride)]
- Cholesterol-free media + simvastatin (0.04 μM) [1, 16]: 0.9652
- Complete Media [1, 17]: 0.176
- Difference [1, 4]: −0.79
- Cholesterol-free [2, 14]: 1.105
- Complete [2, 15]: 1.652
- Difference [2, 19]: 0.55

Molecule: Cc1nnc(NS(=O)(=O)c2ccc(N)cc2)s1 [Sulfamethizole]
- Cholesterol-free media + simvastatin (0.04 μM) [1, 7]: 1.154
- Complete Media [1, 8]: 1.13
- Difference [1, 9]: −0.02
- Cholesterol-free [2, 14]: 0.6059
- Complete [2, 15]: 1.186
- Difference [2, 19]: 0.58

Molecule: CN1[C@@H]2CC[C@H]1C[C@@H](OC(=O)c1c[nH]c3ccccc13)C2 [Tropisetron (Hydrochloride)]
- Cholesterol-free media + simvastatin (0.04 μM) [1, 12]: 1.118
- Complete Media [1, 13]: 0.9866
- Difference [1, 4]: −0.13
- Difference [2, 10]: −0.30
- Cholesterol-free [2, 11]: 1.166
- Complete ([2]; NCI-H292 cells, complete media): 0.8628

Molecule: COc1cc(Nc2ncc(F)c(Nc3ccc4c(n3)N(COP(=O)(O)O)C(=O)C(C)(C)O4)n2)cc(OC)c1OC [Fostamatinib (disodium hexahydrate)]
- Cholesterol-free media + simvastatin (0.04 μM) [1, 12]: 0.9752
- Complete Media [1, 13]: 0.8745
- Difference [1, 4]: −0.10
- Difference [2, 10]: 0.00
- Cholesterol-free [2, 14]: 0.5454
- Complete [2, 15]: 0.5466

Molecule: C[C@H]1O[C@H](OC2[C@@H](O)[C@@H](O)C(O)[C@H](O)[C@H]2O)[C@@H](N)C[C@@H]1N=C(N)C(=O)O.Cl.O (some centres unmarked) [Kasugamycin (hydrochloride hydrate)]
- Cholesterol-free media + simvastatin (0.04 μM) [1, 12]: 1.288
- Difference ([1]; complete media vs cholesterol-free media + simvastatin (0.04 μM), […]): −0.14
- Difference [2, 18]: −0.06
- Cholesterol-free [2, 14]: 1.256
- Complete [2, 15]: 1.194
